Values quoted from earlier work as cited in patent US20160339010A1, “Treatment of Partly Controlled or Uncontrolled Severe Asthma” (TAKEDA GMBH, priority 2014, published 2016).

Experiments:
[1] = tested on: patients with severe and uncontrolled bronchial asthma; details: on top of Fluticasone 500 mcg/Salmeterol 50 mcg twice daily; cited from earlier work
[2] = tested on: patients with high-dose corticosteroid dependent asthma; details: cited from earlier work
asthma patients = details: cited from earlier work

## O=C(Nc1c(Cl)cncc1Cl)c1ccc(OC(F)F)c(OCC2CC2)c1 [Roflumilast]
[1]
  FEV1: significantly improved
  Forced vital capacity (FVC): significantly improved
  accumulation of neutrophils in induced sputum: reduced
  morning PEF: significantly improved

## CC(C)(O)c1ccccc1CC[C@@H](SCC1(CC(=O)[O-])CC1)c1cccc(/C=C/c2ccc3ccc(Cl)cc3n2)c1.[Na+] [montelukast, [R-(E)]-1-[[[1-[3-[2-(7-chloro-2-quinolinyl)ethenyl]phenyl]-3-[2-(1-hydroxy-1-methylethyl)phenyl]propyl]thio]methyl]cyclopropaneacetic acid]
[2]
  sputum eosinophilia: failure of montelukast to reduce

## Cn1c(=O)c2[nH]cnc2n(C)c1=O [theophylline]
Asthma patients
  benefit of add-on therapy to inhaled glucocorticosteroids: no benefit
